# According to patent publication US9719191B2, “Methods for identifying ligands that target nucleic acid molecules and nucleic acid structural motifs” (The Research Foundation for The State University of New York, priority 2006, dated 2017):
# Like-named read-outs stand apart in the source and are kept apart here.
# Experiments:
# [1] = tested on: oligonucleotide mimic of the bacterial rRNA A-site; settings: 6′ NH2 acetylated; cited from earlier work
# IL 34 = experiment: Competitive binding assay against 21-FL; settings: competition with 10 nM 21-FL, 75 nM IL 34
# Experimental: (§1) To determine if selected loops have aminoglycoside preferences, the binding of five aminoglycosides, 21, kanamycin A, kanamycin B, tobramycin, and neamine (FIG. 7) to the pool of RNAs from spot 2+ (FIG. 10C) was probed using a competitive binding assay. […] We also tested a single RNA sequence identified to bind 21, IL 34, in the same manner.
# (§2) A solution containing 75 nM IL 34 was refolded in 1× hybridization buffer+40 μg/mL BSA at 60° C. for 5 min. After slow cooling on the benchtop, 21-FL was added to a final concentration of 10 nM. The competing, unlabeled aminoglycoside was then added, and the resulting solution was serially diluted into 1× hybridization buffer+40 μg/mL BSA+10 nM 21-FL containing 75 nM IL 34. The solutions were equilibrated for 30 min at RT, and the fluorescence intensities were measured on a Bio-Tek HT fluorescence plate reader.
# [2] = biological target: pool of RNAs from spot 2+; experiment: Competitive binding assay against 21-FL; settings: for Kd: competition with 10 nM 21-FL
# Experimental: as §1, §2
# [3] = tested on: RNA 3×3 internal loop library (R1); experiment: Resin-based selection of RNA internal loops with immobilized kanamycin A; type: binding; settings: based on initial radioactivity eluted with kanamycin A; about 150 members
# Experimental: Selections were completed by incubating a solution that contained 5′ end ^32P-labeled R1 in buffer with resin-immobilized kanamycin A. In addition to R1, a variety of other oligonucleotides were added to the incubation solution (R2-R4, D1, D2). […] The small number may be due to the manner in which the ligand was immobilized onto the resin (impairs the 6′ amino group from forming stabilizing contacts with RNA).
# Each of the oligonucleotides was refolded separately in Hybridization Buffer (“HB”) containing 8 mM […] pH 7.0, 1 mM EDTA, and 185 mM NaCl by heating for 5 min at 65° C. and then cooling to RT on the benchtop. Oligonucleotides were then transferred to 4° C. and mixed together. Before the oligonucleotides were hybridized with the resin, 200 μg of BSA was added to the samples. Each selection experiment was completed with 10 picomoles of 5′-end labeled R1 and 20-fold higher concentration of each control oligonucleotide (R2-R4, D1, D2) over the concentration of R1.
# A 100 μL aliquot of resin slurry (10 μL of resin) was placed into a 2.5 mL BioRad column and washed 3× with 1 mL of 4° C. HB. […] At this stage, liquid scintillation counting was used to ensure that only background radioactivity was being eluted from the column. […]
# [4] = tested on: immobilized 6′-N-5-hexynoate kanamycin A (2) / radiolabeled IL 7; experiment: Array-based competitive binding assay: competitor RNA against trace 32P-labeled IL 7 on immobilized 2; settings: for IC50: read-out: IC50 (concentration of competitor that inhibited 50% of the binding of radioactively labeled IL 7), competitor RNA, immobilized 2 in microwells, 30 min at RT
# Description: Typically microarray experiments can be used to probe the binding of a variety of small molecules to a single or a few analytes at once. In order to increase the number of conditions that can be probed on a single array, we affixed a silicon gasket that created 50 microwells on the surface of each chip (FIG. 5A). These microwells converted the array into a miniaturized 50-well plate that is easily functionalized to display kanamycin. Compound 2 was immobilized in each microwell at a constant concentration. Binding experiments were completed by delivering 10 μL of a solution containing serially diluted concentrations of the internal loop of interest and trace 5′end ^32P labeled IL 7 into each microwell. Dose response curves were constructed and fit to determine the concentration of competitor that inhibited 50% of the binding of the radioactively labeled RNA (FIG. 3, FIG. 5B, and FIG. 5C). FIG. 5B is a representative autoradiogram for binding selected RNAs relative to binding of control oligonucleotides R2, R3, D1 and D2, and R4, the cassette without an internal loop.
# In order to determine which concentration of 2 was optimal for competitive binding assays, serially diluted 2 was applied to the chip surface and allowed to react for 2 h at RT inside the microwell of a silicon gasket (GRACE Biolabs, CWCS 50R-1.0, C-24780) (FIG. 5A). Each of the wells was washed twice with water, and the slide was dried in air. The 5′ end ^32P radiolabeled IL 7 was annealed in 1×HB+40 μg/mL of BSA at 60° C. for 5 min and allowed to slow cool on the benchtop for 10 min. It is important to note that the hybridization buffer contains 1 mM EDTA, or 50 equivalents compared to the amount of Cu^2+ used for the click reaction. […] The annealed RNA oligonucleotide was hybridized with the chip surface for 30 min at RT. […]
# IC50's were determined by incubating serially diluted competitor RNA and trace radiolabeled IL 7 in microwells formed using a silicon gasket. […] The data were quantified using Bio-Rad's QuantityOne software, and the IC50's were determined using SigmaPlot's four-parameter logistical curve fit.
# [5] = biological target: 1×1 CC internal loop derived from the untranslated region in thymidylate synthase mRNA; settings: 1 mM MgCl2 and CaCl2, 150 mM NaCl, 5 mM KCl, 20 mM HEPES (pH 7.5); read-out: dissociation constant; cited from earlier work
# [6] = biological target: pool of RNAs harvested from position 2+; experiment: Fluorescence-based direct binding assay with 21-FL; settings: lower ligand loading position 2+
# [7] = biological target: DNA chase oligonucleotides 25+26; experiment: Fluorescence-based direct binding assay with 21-FL; settings: no change in fluorescence intensity up to 5 μM
# [8] = biological target: pool of RNAs harvested from position 1+; experiment: Fluorescence-based direct binding assay with 21-FL; settings: higher ligand loading position 1+
# hairpin cassette R4 = settings: RNase A and S1 nuclease, compound 0, 0.1, 1, 10, 100 μM
# Experimental: (§3) The binding site of 2 was determined by enzymatic probing of IL 7 and R4 in the presence or absence of 2 with RNase A and S1 nuclease.
# (§4) The binding site(s) of 2 was determined using a nuclease protection assay. For RNase A mapping experiments, radiolabeled oligonucleotide was annealed as described above. After slow cooling, serially diluted concentrations of 2 were added, and the resulting solution was allowed to equilibrate for 30 min at RT. Approximately 6 μunits of RNase A were added, and the reaction was allowed to proceed for 10 min. The reaction was quenched by addition of an equal volume of stop buffer, and the products were separated on a denaturing 17% polyacrylamide gel.
# (§5) For S1 nuclease mapping experiments, the radiolabeled oligonucleotide was annealed as described except the buffer used was 50 mM sodium acetate (pH 4.5), 280 mM NaCl, and 4.5 mM ZnSO4. The solution was allowed to equilibrate for 30 min at RT after the addition of serially diluted concentrations of 2, and then 10 units of S1 were added. The reaction was quenched after 10 min at RT, and the products were separated on a denaturing 17% polyacrylamide gel.
# IL 7 = settings: RNase A and S1 nuclease, compound 0, 0.1, 1, 10, 100 μM
# Experimental: as §3, §4, §5
# [9] = biological target: chase oligonucleotide 24 (GAAA hairpin mimic); experiment: Fluorescence-based direct binding assay with 21-FL; settings: no change in fluorescence intensity up to 5 μM
# [10] = biological target: RNA internal loop library 22; experiment: Fluorescence-based direct binding assay with 21-FL; settings: entire library
# [11] = biological target: chase oligonucleotide 23 (stem mimic duplex); experiment: Fluorescence-based direct binding assay with 21-FL; settings: no change in fluorescence intensity up to 5 μM
# empty cassette RNA 27 = experiment: Fluorescence-based direct binding assay with 21-FL
# [12] = tested on: RNA internal loop library 22; settings: chase oligonucleotides 23-26 in excess
# IL 16 = settings: in presence of 2
# Experimental: as §3
# IL 1 = settings: in presence of 2
# Experimental: as §3
# tRNAphe = experiment: Fluorescence-based direct binding assay with 21-FL
# [13] = listed as 6′ hexynoate kanamycin A
molecule,measurement,setting,value
CC(=O)NCC1OC(OC2C(N)CC(N)C(OC3OC(CO)C(O)C(N)C3O)C2O)C(O)C(O)C1O (stereo not drawn) [6′ acetylated kanamycin A],reduction in binding relative to the parent aminoglycoside,[1],several orders of magnitude
NC[C@H]1O[C@H](O[C@H]2[C@H](O)[C@@H](O)[C@H](N)C[C@@H]2N)[C@H](N)[C@@H](O)[C@@H]1O [neamine],Kd,IL 34,much weaker
same,Kd,[2],> 500 nM
NC[C@H]1O[C@H](O[C@H]2[C@H](O)[C@@H](O[C@H]3O[C@H](CO)[C@@H](O)[C@H](N)[C@H]3O)[C@H](N)C[C@@H]2N)[C@H](O)[C@@H](O)[C@@H]1O [kanamycin A],Kd,IL 34; read-out: Kd,5 nM
same,Kd,[2],9 nM
same,percentage of the 4096-member library bound to immobilized ligand,[3],~4%
"IL 17: selected RNA internal loop (SEQ ID NO:14 series; SEQ ID NO:28), U replaced with C and closing pair GC (GGGAGAGGGUUUAAUCUUUACGAAAGUACCGAUUGGAUCCGCAAGG; listed as RNA, chemistry not given here)",fold weaker binding relative to IL 1 and IL 2,[4],~10 fold
NC[C@H]1O[C@H](O[C@H]2[C@H](O)[C@@H](O[C@H]3O[C@H](CO)[C@@H](O)[C@H](N)[C@H]3O)[C@H](N)C[C@@H]2N)[C@H](N)[C@@H](O)[C@@H]1O [kanamycin B],Kd,IL 34; read-out: Kd,5 nM
same,Kd,[2],12 nM
same,Kd,[5],1100 nM
"C#CCCCC(=O)NC[C@@H]1O[C@@H](O[C@H]2[C@H](O)[C@@H](O[C@@H]3O[C@@H](CO)[C@H](O)[C@@H](N)[C@@H]3O)[C@H](N)C[C@@H]2N)[C@@H](O)[C@H](O)[C@H]1O [Compound 21, 6′-N-5-hexynoate kanamycin A]",Kd,IL 34; read-out: Kd,7 nM
same,Kd,[2],12 nM
same,Kd,[6],11 nM
same,Kd,[7],> 5000 nM
same,Kd,[8],65 nM
same,nucleotides protected from cleavage,hairpin cassette R4; listed as 2,No nucleotides in the cassette R4 are protected
same,nucleotides protected from cleavage,hairpin cassette R4; [13],no nucleotides are protected from modification
same,nucleotides protected from cleavage,IL 7; listed as 2,only nucleotides in the loop and the surrounding base pairs in IL 7 are protected from cleavage
same,nucleotides protected from cleavage,IL 7; [13],occurs only in the randomized regions
same,Kd,[9],> 5000 nM
same,Kd,[10],280 nM
same,Kd,[11],> 5000 nM
same,Kd,empty cassette RNA 27,1300 nM
same,binding of library members on the array,[12],concentration-dependent binding
same,DEPC modification of loop nucleotides,IL 16,decreased modification
same,DEPC modification of loop nucleotides,IL 1,decreased modification
same,Kd,tRNAphe,700 nM
"IL 2: selected RNA internal loop (SEQ ID NO:13), 5′UU/3′UC 2×2 loop, one closing A-U pair in different orientation (GGGAGAGGGUUUAAUAUCUACGAAAGUAUUUAUUGGAUCCGCAAGG; listed as RNA, chemistry not given here)",IC50,[4],3.3 nM
"IL 1: selected RNA internal loop (SEQ ID NO:12), 5′UU/3′UC 2×2 loop closed by A-U pairs (GGGAGAGGGUUUAAUUUUUACGAAAGUAACUAUUGGAUCCGCAAGG; listed as RNA, chemistry not given here)",IC50,[4],2.2 nM
NC[C@H]1O[C@H](O[C@H]2[C@H](O)[C@@H](O[C@H]3O[C@H](CO)[C@@H](O)[C@H](N)[C@H]3O)[C@H](N)C[C@@H]2N)[C@H](N)C[C@@H]1O [tobramycin],Kd,IL 34,much weaker
same,Kd,[2],85 nM
same,fold weaker binding,"[2]; relative to 21, kanamycin A and kanamycin B",approximately 9 fold
same,Kd,[5],870 nM
